Converted amounts (≈) assume the structure as drawn.
tested on: not listed separately; test: Acute toxicity test in mice; format: in vivo; conditions: Intraperitoneal Administration; male mice, ddY strain; observation for one week
Procedure: Four male mice (ddY strain; six weeks age) were used for each drug tested.
In the intraperitoneal administration, each drug was suspended in 0.5% CMC-physiological saline solution and 0.1 ml (per 10 g body weight of mouse) of the suspension was intraperitoneally given to mouse. In the case of oral administration, each drug was suspended in 0.5% CMC-physiological saline solution and 0.2 ml (per 10 g body weight of mouse) of the suspension was given orally. Observation was started soon after administration and, after observation for one week, the mice were killed by chloroform and subjected to autopsied. LD₅₀ of each drug tested was given in the following tables wherefrom it is clear that the compounds of the present invention are safe.

SMILES | L D ₅₀
COc1ccc(C(C)=CCN2C[C@H](O)[C@@H](O)[C@H](O)[C@H]2CO)cc1 [Compound No. 103, N-(magga-Methyl-4-methoxycinnamyl)moranoline] | > 300 mg/kg
OC[C@@H]1[C@@H](O)[C@H](O)[C@@H](O)CN1CCCCc1ccc(Oc2ccccc2)cc1 [Compound No. 205, N-[4-(4-Phenoxyphenyl)butyl]moranoline] | > 300 mg/kg

same assay, conditions: Oral Administration; male mice, ddY strain; observation for one week

SMILES | L D ₅₀
COc1ccc(C(C)=CCN2C[C@H](O)[C@@H](O)[C@H](O)[C@H]2CO)cc1 [Compound No. 103, N-(magga-Methyl-4-methoxycinnamyl)moranoline] | > 5,000 mg/kg
OC[C@@H]1[C@@H](O)[C@H](O)[C@@H](O)CN1CCCCc1ccc(Oc2ccccc2)cc1 [Compound No. 205, N-[4-(4-Phenoxyphenyl)butyl]moranoline] | > 5,000 mg/kg

tested on: virus; test: Antiviral action test: screening by inhibition of cell degeneration effect (CPE) in virus-infected HeLa cells; format: cell-based; conditions: amount of added drug whereby the CPE became 50%, M.O.I = 0.002, culture for three days
Procedure: HeLa cells were subjected to subcultured by monolayer culture (Eagle's MEM-10% CS) and infected as M.O.I. (multiplicity of infection) = 0.01.
On the first day, HeLa cells were spread in a 75 cm³ flask and cultured on a one-day growth medium (Eagle's MEM-10% CS). On the second day, old medium was removed after confirming the formation of cell sheet, then M.O.I was made 0.01 PFU/cell and 0.5 ml of virus solution was added. The original virus solution was diluted with PBS-3% FCS solution. Operation of the virus inoculation was conducted by tilting for 1 hour at room temperature. After virus was inoculated on the cells, the virus-inoculated solution was removed, washed twice with 10 ml PBS and the residual virus solution was removed. Then 15 ml of maintenance medium (Eagle's MEM-1% CS) was added and cultured at 37°C for 2 days. The cells were observed from time to time and the culture was continued until cell fusion and cell rounding were confirmed. After the culture, medium was recovered which was used as a virus solution and was stored at -20°C until actual use.
The 78 cm³ flask containing HeLa cells which were subjected to a monolayer maintenance subculture was taken out, the old medium was discarded, 2-3 ml of 0.25% trypsine (Difco = 1:250)-0.02% EDTA/PBS(-) solution was added, tilted for a few seconds, the trypsine solution was removed and warmed at 37°C for 5 minutes. Then fresh medium was added, pipetted with a Komagome pipette and the cells were homogeneously dispersed.
Cells were counted using a cytometer, then fresh medium was added, diluted to make the cell concentration 5 x 10⁵ cells/ml, 2 ml of that was added to a laboratory dish of 35 mm diameter and cultured in a CO₂-incubator at 37°C for one day to prepare cell sheet.
The virus solution was diluted by a diluting solution to make diluted solutions of ten-times difference or step. The laboratory dish wherein HeLa cells were cultured on the previous day was taken out from the incubator, old medium was discarded and the cells were washed with each 2 ml of PBS twice. Properly diluted virus solution (0.2 ml) was added to each laboratory dish, subjected to a tilting at room temperature for 60 minutes immediately and virus was inoculated. Then the virus solution was removed, each 2 ml of 0.5% methylcellulose/Eagle's MEM-1% CS was added and cultured in a CO₂ incubator for 4 days.
The cultured laboratory dish was taken out from the CO₂-incubator and methylcellulose medium was removed. Then cells were washed with 2 ml of PDS, 2 ml of methanol was added, allowed to stand for 10 minutes and cells were immobilized and, at the same time, virus was sterilized. Hematoxylin dyeing solution (2 ml) was added to the laboratory dish which was immobilized with methanol, allowed to stand for about 10 minutes, washed with water and air-dried at room temperature. Since the cells destructed with virus were not dyed, plaque area was noted as a void and the plaque numbers were counted whereby virus value (PFU/ml) (Plaque forming units/ml) was measured.
HeLa cells during the subculture were dispersed with trypsine liquid-EDTA solution, 5 x 10⁵ cells/pore were embedded on a plate having 24 pores and cultured overnight at 37°C in a CO₂-incubator to prepare cell sheet.
As mentioned above, old medium was discarded, the cells were washed with PBS, the virus solution was diluted to make M.O.I = 0.002, 0.1 ml of it was added to each pore, subjected to a tilting at room temperature for 60 minutes and virus was inoculated to the cell.
Virus solution was removed from the cells after inoculation of virus, the cells were washed with 2 ml of PBS, each 1 ml of maintenance medium was added to each pore, then each 10 µl of the drug was added and the cells were cultured in a CO₂-incubator. Culture was conducted for three days.
The cells on the plate were observed under an invert microscope. Cell degeneration effect (CPE) was observed as cell fusion and making the cells round. […]

SMILES | EC50 (50% CPE inhibition)
CCN1C[C@H](O)[C@@H](O)[C@H](O)[C@H]1CO [B, N-ethylmoranoline, reference compound] | >100 µg/mL
Cc1ccc(S(=O)(=O)O)cc1.OC[C@@H]1[C@@H](O)[C@H](O)[C@@H](O)CN1CCCC=Cc1ccccc1 [Compound No. 89, N-(5-Phenyl-4-pentenyl)moranoline tosylate] | 10 µg/mL
OC[C@@H]1[C@@H](O)[C@H](O)[C@@H](O)CN1CCCOc1ccc(Cl)cc1 [Compound No. 93, N-[3-(4-Chlorophenoxy)propyl]moranoline] | 30 µg/mL (≈ 90.4 µM)
O.OC[C@@H]1[C@@H](O)[C@H](O)[C@@H](O)CN1CC=C(c1ccccc1)c1ccc(Cl)cc1 [Compound No. 99, N-(gamma-Phenyl-4-chlorocinnamyl)moranoline monohydrate] | 30 µg/mL
OC[C@@H]1[C@@H](O)[C@H](O)[C@@H](O)CN1CC=C(c1ccccc1)c1ccc(F)cc1 [Compound No. 100, N-(gamma-Phenyl-4-fluorocinnamyl)moranoline] | 10 µg/mL (≈ 26.8 µM)
CC(=CCN1C[C@H](O)[C@@H](O)[C@H](O)[C@H]1CO)c1ccc(Br)cc1 [Compound No. 101, N-(gamma-Methyl-4-bromocinnamyl)moranoline] | 30 µg/mL (≈ 80.6 µM)
CC(=CCN1C[C@H](O)[C@@H](O)[C@H](O)[C@H]1CO)c1ccc(Cl)c(Cl)c1 [Compound No. 102, N-(gamma-Methyl-3,4-dichlorocinnamyl)moranoline] | 10 µg/mL (≈ 27.6 µM)
COc1ccc(C(C)=CCN2C[C@H](O)[C@@H](O)[C@H](O)[C@H]2CO)cc1 [Compound No. 103, N-(magga-Methyl-4-methoxycinnamyl)moranoline] | 30 µg/mL (≈ 92.8 µM)
COc1ccc(C(=CCN2C[C@H](O)[C@@H](O)[C@H](O)[C@H]2CO)c2ccccc2)cc1 [Compound No. 105, N-(gamma-Phenyl-4-methoxycinnamyl)moranoline] | 100 µg/mL (≈ 259 µM)
C=C(C)C1CC=C(CN2C[C@H](O)[C@@H](O)[C@H](O)[C@H]2CO)CC1.Cc1ccc(S(=O)(=O)O)cc1 (some centres unmarked) [Compound No. 106, N-[(4-Isopropenyl-1-cyclohexenyl)methyl]moranoline tosylate] | 30 µg/mL
CC(=CCCN1C[C@H](O)[C@@H](O)[C@H](O)[C@H]1CO)c1cccc(F)c1 [Compound No. 107, N-[4-(3-Fluorophenyl)-3-pentenyl]moranoline] | 30 µg/mL (≈ 92.2 µM)
CC(=CCCN1C[C@H](O)[C@@H](O)[C@H](O)[C@H]1CO)c1ccc(F)cc1 [Compound No. 108, N-[4-(4-Fluorophenyl)-3-pentenyl]moranoline] | 30 µg/mL (≈ 92.2 µM)
CC(=CCCN1C[C@H](O)[C@@H](O)[C@H](O)[C@H]1CO)c1ccccc1C [Compound No. 109, N-[4-(2-Methylphenyl)-3-pentenyl]moranoline] | 30 µg/mL (≈ 93.3 µM)
CC(=CCCN1C[C@H](O)[C@@H](O)[C@H](O)[C@H]1CO)c1ccc(Cl)cc1 [Compound No. 110, N-[4-(4-Chlorophenyl)-3-pentenyl]moranoline] | 10 µg/mL (≈ 29.3 µM)
CC(=CCCN1C[C@H](O)[C@@H](O)[C@H](O)[C@H]1CO)c1cccc(Cl)c1 [Compound No. 111, N-[4-(3-Chlorophenyl)-3-pentenyl]moranoline] | 30 µg/mL (≈ 87.8 µM)
CC(=CCCN1C[C@H](O)[C@@H](O)[C@H](O)[C@H]1CO)c1ccccc1Cl [Compound No. 112, N-[4-(2-Chlorophenyl)-3-pentenyl]moranoline] | 30 µg/mL (≈ 87.8 µM)

SMILES | EC50 (50% CPE inhibition)
CC(=CCCN1C[C@H](O)[C@@H](O)[C@H](O)[C@H]1CO)c1cccc(C(F)(F)F)c1 [Compound No. 113, N-[4-(3-Trifluoromethylphenyl)-3-pentenyl]moranoline] | 30 µg/mL (≈ 79.9 µM)
CC(=CCCN1C[C@H](O)[C@@H](O)[C@H](O)[C@H]1CO)c1ccc(N(C)C)cc1 [Compound No. 114, N-[4-(4-Dimethylaminophenyl)-3-pentenyl]moranoline] | 30 µg/mL (≈ 85.6 µM)
COc1ccccc1C(C)=CCCN1C[C@H](O)[C@@H](O)[C@H](O)[C@H]1CO [Compound No. 116, N-[4-(2-Methoxyphenyl)-3-pentenyl]moranoline] | 30 µg/mL (≈ 88.9 µM)
CCOc1ccc(C(C)=CCCN2C[C@H](O)[C@@H](O)[C@H](O)[C@H]2CO)cc1 [Compound No. 118, N-[4-(4-Ethoxyphenyl)-3-pentenyl]moranoline] | 30 µg/mL (≈ 85.4 µM)
CC(=CCCN1C[C@H](O)[C@@H](O)[C@H](O)[C@H]1CO)c1cc(C(C)C)ccc1C [Compound No. 119, N-[4-(2-Methyl-5-isopropylphenyl)-3-pentenyl]moranoline] | 3 µg/mL (≈ 8.25 µM)
OC[C@@H]1[C@@H](O)[C@H](O)[C@@H](O)C[N+]1(CC=Cc1ccccc1Cl)CC=Cc1ccccc1Cl.[Cl-] (some centres unmarked) [Compound No. 123, N,N-Bis(2-chlorocinnamyl)moranoline ammonium chloride] | 3 µg/mL
Cc1ccc(C=CCCN2CC(O)C(O)C(O)C2CO)cc1F (centres unmarked) [Compound No. 133, 4-[4-(3-Fluoro-4-methylphenyl)-3-butenyl]moranoline] | 30 µg/mL (≈ 92.2 µM)
COc1ccc(C=CCCCN2C[C@H](O)[C@@H](O)[C@H](O)[C@H]2CO)cc1Cl [Compound No. 148, N-[5-(3-Chloro-4-methoxyphenyl)-4-pentenyl]moranoline] | 30 µg/mL (≈ 80.7 µM)
Cc1ccc(CCCCN2C[C@H](O)[C@@H](O)[C@H](O)[C@H]2CO)cc1F [Compound No. 150, N-[4-(3-Fluoro-4-methylphenyl)butyl]moranoline] | 30 µg/mL (≈ 91.6 µM)
COc1ccc(C=CCCCN2C[C@H](O)[C@@H](O)[C@H](O)[C@H]2CO)c(C)c1 [Compound No. 151, N-[5-(4-Methoxy-2-methylphenyl)-4-pentenyl]moranoline] | 30 µg/mL (≈ 85.4 µM)
COCCOc1cccc(C(C)=CCN2C[C@H](O)[C@@H](O)[C@H](O)[C@H]2CO)c1 [Compound No. 157, N-[3-(3-Methoxyethoxyphenyl)-2-butenyl]moranoline] | 100 µg/mL (≈ 272 µM)
CCOc1cccc(C(C)=CCN2C[C@H](O)[C@@H](O)[C@H](O)[C@H]2CO)c1 [Compound No. 159, N-(gamma-Methyl-3-ethoxycinnamyl)moranoline] | 30 µg/mL (≈ 88.9 µM)
CCOc1ccc(C(C)=CCN2C[C@H](O)[C@@H](O)[C@H](O)[C@H]2CO)cc1 [Compound No. 160, N-[3-(4-Ethoxyphenyl)-2-butenyl]moranoline] | 10 µg/mL (≈ 29.6 µM)
CCCCCCCCCCCCCCCCCC(=O)N1C[C@H](O)[C@@H](O)[C@H](O)[C@H]1CO [Compound No. 171, N-Stearoylmoranoline] | 30 µg/mL (≈ 69.8 µM)
CCCCCCCCCCCCCC(=O)N1C[C@H](O)[C@@H](O)[C@H](O)[C@H]1CO [Compound No. 174, N-Myristoylmoranoline] | 10 µg/mL (≈ 26.8 µM)

Reference: EP0491041A1, “ANTIVIRAL DRUG” (NIPPON SHINYAKU COMPANY, LIMITED, priority 1989, dated 1991)
